# Test results as given in PubChem BioAssay AID1963431 (Molecular Pharmacology Branch, DTP, NCI, 2024).
# System: Rh18 complex spheroid viability, percent test/control
# Assay: Anticancer human tumor Rh18 cell line growth inhibition [Asc];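 further: spheroids exposed to compound for 7 days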;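 on viability, T/C: 100% = DMSO vehicle control wells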
# Conditions: for IC50: curve of first compound; for viability, T/C: stronger effect = lower value
# Method in brief: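 Complex solid-tumor spheroids incorporating human endothelial and mesenchymal stem cells received single agents or combinations over half-log dilution ranges anchored to clinical Cmax.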
structure (smiles),measurement,setting,value
NC1CCC(NC2CC2c2ccccc2)CC1 (stereo not given) + CCN1C(C(=O)NC23CCC(C(=O)O)(CC2)CC3)C(c2cccc(Cl)c2F)C2(C(=O)Nc3cc(Cl)ccc32)C12CCCCC2,IC50,second compound 0.03 µM,< 0.316 nM
same,IC50,second compound 0.0949 µM,< 0.316 nM
same,IC50,second compound 0.3 µM,< 0.316 nM
same,IC50,second compound 0.949 µM,< 0.316 nM
same,IC50,second compound 3 µM,< 0.316 nM
same,"viability, T/C","second compound 0.03 µM, first compound 0.000316 µM",31.7%
same,"viability, T/C","second compound 0.03 µM, first compound 0.001 µM",31.3%
same,"viability, T/C","second compound 0.03 µM, first compound 0.00316 µM",30.4%
same,"viability, T/C","second compound 0.03 µM, first compound 0.01 µM",29.5%
same,"viability, T/C","second compound 0.03 µM, first compound 0.0316 µM",33.9%
same,"viability, T/C","second compound 0.03 µM, first compound 0.1 µM",34.5%
same,"viability, T/C","second compound 0.0949 µM, first compound 0.000316 µM",19.3%
same,"viability, T/C","second compound 0.0949 µM, first compound 0.001 µM",23.4%
same,"viability, T/C","second compound 0.0949 µM, first compound 0.00316 µM",18.8%
same,"viability, T/C","second compound 0.0949 µM, first compound 0.01 µM",19%
same,"viability, T/C","second compound 0.0949 µM, first compound 0.0316 µM",19.6%
same,"viability, T/C","second compound 0.0949 µM, first compound 0.1 µM",20.9%
same,"viability, T/C","second compound 0.3 µM, first compound 0.000316 µM",11.1%
same,"viability, T/C","second compound 0.3 µM, first compound 0.001 µM",13.3%
same,"viability, T/C","second compound 0.3 µM, first compound 0.00316 µM",13%
same,"viability, T/C","second compound 0.3 µM, first compound 0.01 µM",13.3%
same,"viability, T/C","second compound 0.3 µM, first compound 0.0316 µM",12.9%
same,"viability, T/C","second compound 0.3 µM, first compound 0.1 µM",14.4%
same,"viability, T/C","second compound 0.949 µM, first compound 0.000316 µM",11.6%
same,"viability, T/C","second compound 0.949 µM, first compound 0.001 µM",10.8%
same,"viability, T/C","second compound 0.949 µM, first compound 0.00316 µM",9.55%
same,"viability, T/C","second compound 0.949 µM, first compound 0.01 µM",8.96%
same,"viability, T/C","second compound 0.949 µM, first compound 0.0316 µM",10.3%
same,"viability, T/C","second compound 0.949 µM, first compound 0.1 µM",11.3%
same,"viability, T/C","second compound 3 µM, first compound 0.000316 µM",11%
same,"viability, T/C","second compound 3 µM, first compound 0.001 µM",10.2%
same,"viability, T/C","second compound 3 µM, first compound 0.00316 µM",11.8%
same,"viability, T/C","second compound 3 µM, first compound 0.01 µM",10.1%
same,"viability, T/C","second compound 3 µM, first compound 0.0316 µM",8.61%
same,"viability, T/C","second compound 3 µM, first compound 0.1 µM",9.99%
COc1c(OCCCN2CCOCC2)ccc2c3n(c(=NC(=O)c4cnc(N)nc4)nc12)CCN3 + CNC(C)C(=O)NC1CN(S(=O)(=O)c2cccc(S(=O)(=O)N3CCC4CCC(C(=O)NC(c5ccccc5)c5ccccc5)N4C(=O)C(NC(=O)C(C)NC)C3)c2)CCC2CCC(C(=O)NC(c3ccccc3)c3ccccc3)N2C1=O,IC50,second compound 0.01 µM,4.1 nM
same,IC50,second compound 0.0316 µM,< 3.16 nM
same,IC50,second compound 0.1 µM,< 3.16 nM
same,IC50,second compound 0.316 µM,< 3.16 nM
same,IC50,second compound 1 µM,< 3.16 nM
same,"viability, T/C","second compound 0.01 µM, first compound 0.00316 µM",56.5%
same,"viability, T/C","second compound 0.01 µM, first compound 0.01 µM",28.1%
same,"viability, T/C","second compound 0.01 µM, first compound 0.0316 µM",13.5%
same,"viability, T/C","second compound 0.01 µM, first compound 0.1 µM",5.19%
same,"viability, T/C","second compound 0.01 µM, first compound 0.316 µM",1.61%
same,"viability, T/C","second compound 0.01 µM, first compound 1 µM",0.4%
same,"viability, T/C","second compound 0.0316 µM, first compound 0.00316 µM",38.4%
same,"viability, T/C","second compound 0.0316 µM, first compound 0.01 µM",26.1%
same,"viability, T/C","second compound 0.0316 µM, first compound 0.0316 µM",8.33%
same,"viability, T/C","second compound 0.0316 µM, first compound 0.1 µM",2.99%
same,"viability, T/C","second compound 0.0316 µM, first compound 0.316 µM",2.16%
same,"viability, T/C","second compound 0.0316 µM, first compound 1 µM",0.41%
same,"viability, T/C","second compound 0.1 µM, first compound 0.00316 µM",37.3%
same,"viability, T/C","second compound 0.1 µM, first compound 0.01 µM",27.9%
same,"viability, T/C","second compound 0.1 µM, first compound 0.0316 µM",9.81%
same,"viability, T/C","second compound 0.1 µM, first compound 0.1 µM",2.85%
same,"viability, T/C","second compound 0.1 µM, first compound 0.316 µM",1.49%
same,"viability, T/C","second compound 0.1 µM, first compound 1 µM",0.35%
same,"viability, T/C","second compound 0.316 µM, first compound 0.00316 µM",31.4%
same,"viability, T/C","second compound 0.316 µM, first compound 0.01 µM",22.4%
same,"viability, T/C","second compound 0.316 µM, first compound 0.0316 µM",9.6%
same,"viability, T/C","second compound 0.316 µM, first compound 0.1 µM",2.64%
same,"viability, T/C","second compound 0.316 µM, first compound 0.316 µM",1.51%
same,"viability, T/C","second compound 0.316 µM, first compound 1 µM",0.29%
same,"viability, T/C","second compound 1 µM, first compound 0.00316 µM",27.5%
same,"viability, T/C","second compound 1 µM, first compound 0.01 µM",20.3%
same,"viability, T/C","second compound 1 µM, first compound 0.0316 µM",6.75%
same,"viability, T/C","second compound 1 µM, first compound 0.1 µM",3.45%
same,"viability, T/C","second compound 1 µM, first compound 0.316 µM",1.17%
same,"viability, T/C","second compound 1 µM, first compound 1 µM",0.36%
